Structures are written as SMILES.

A short description of the assay: Inhibition of FTase.
As to `N#Cc1ccc(COCc2cncn2Cc2ccc(C#N)cc2-c2cccc3ccccc23)cc1`, the pIC50 is given as 9.02.
With `N#Cc1ccc(Cn2cncc2COCc2ccc(C#N)cc2-c2cccc(OC(F)(F)F)c2)cc1`, the pIC50 turned out to be 9.31.
`Cc1ccc(-c2cc(C#N)ccc2COCc2cncn2Cc2ccc(C#N)cc2)cc1C` registered a pIC50 of 9.22.
As for `N#Cc1ccc(Cn2cncc2COCc2ccc(C#N)cc2-c2ccc(C(F)(F)F)cc2)cc1`, the negative logarithm of the IC50 (pIC50) was found to be 8.37.
`N#Cc1ccc(Cn2cncc2COc2ccc(Cl)cc2-c2cccc(Cl)c2)cc1` had a pIC50 of 8.4.
Next, `N#Cc1ccc(COCc2cncn2Cc2ccc(Cl)cc2)c(-c2ccc3c(c2)OCO3)c1`: 8.08; `CCOc1cccc(-c2cc(C#N)ccc2COCc2cncn2Cc2ccc(C#N)nc2)c1`: 9.24; `N#Cc1ccc(Cn2cncc2CNCc2ccc(C#N)c(-c3cccc4ccccc34)c2)cc1`: 8.19.
`CC(C)(C)c1ccc(-c2cc(C#N)ccc2COCc2cncn2Cc2ccc(C#N)cc2)cc1` yielded a pIC50 of 9.36.
`N#Cc1ccc(COCc2cncn2Cc2ccc(C#N)nc2)c(-c2ccc3c(c2)OCO3)c1` returned a pIC50 of 8.52.
Next, `N#Cc1ccc(Cn2cncc2COCc2ccc(C#N)cc2-c2ccc3ccccc3c2)cc1`: 9.04; `CCOc1ccc(-c2cc(C#N)ccc2COCc2cncn2Cc2ccc(C#N)cc2)cc1`: 8.9; `N#Cc1ccc(OCc2cncn2Cc2ccc(C#N)c(-c3cccc4ccccc34)c2)nc1`: 9.05.
With `COc1ccc(-c2cc(C#N)ccc2COCc2cncn2Cc2ccc(C#N)cc2)cn1`, the pIC50 amounted to 8.12.
Regarding `N#Cc1ccc(COCc2cncn2Cc2ccc(C#N)nc2)c(-c2cccc(Cl)c2)c1`, the pIC50 is 8.52.
As for `COc1cccc(-c2cc(C#N)ccc2COCc2cncn2Cc2ccc(C#N)cn2)c1`, the figure is 8.36.
As for `N#Cc1ccc(OCc2cncn2Cc2ccc(C#N)c(-c3cccc4ccccc34)c2)cc1`, the pIC50 came out at 9.49.
On to `N#Cc1ccc(Cn2cncc2COCc2ccc(C#N)c(-c3cccc4ccccc34)c2)cc1`, for which the pIC50 was found to be 8.32.
Consider `COc1cccc(-c2cc(C#N)ccc2COCc2cncn2Cc2ccc(C#N)nc2)c1`, for which the pIC50 stood at 8.82.
Take `N#Cc1ccc(Cn2cncc2COCc2ccc(C#N)cc2-c2cccc(Cl)c2)cc1`: the pIC50 came out at 9.43.
Take `N#Cc1ccc(Cn2cncc2COCc2ccc(Cl)cc2-c2cccc(Cl)c2)cc1`: the pIC50 came out at 9.21.
As for `N#Cc1ccc(Cn2cncc2COCc2ccc(C#N)cc2-c2ccc3c(c2)OCO3)nc1`, the pIC50 is on record as 8.33.
For `N#Cc1ccc(Cn2cncc2COc2ccc(C#N)c(-c3cccc4ccccc34)c2)cc1`, the pIC50 is 9.42.
In turn, `CS(=O)(=O)c1ccc(Cn2cncc2COCc2ccc(C#N)cc2-c2cccc(Cl)c2)cc1` showed a pIC50 of 7.02.
As for `N#Cc1ccc(COCc2cncn2Cc2ccc(C#N)cc2-c2cccc(Cl)c2)c(-c2cccc(Cl)c2)c1`, the pIC50 came to 8.
With `N#Cc1ccc(Cn2cncc2COCc2ccc(C#N)cc2-c2ccc(Cl)c(Cl)c2)cc1`, the pIC50 is 9.43.
Compound `N#Cc1ccc(Cn2cncc2COCc2cnc(C#N)cc2-c2cccc(Cl)c2)cc1` yielded a pIC50 of 8.37.
In the case of `N#Cc1cn(Cc2cncn2Cc2ccc3c(c2)OCO3)cc1-c1cccc2ccccc12`, the pIC50 worked out at 8.21.
Compound `Cn1c(=O)cc(-c2cccc(Cl)c2)c2cc(C(N)c3cncn3Cc3ccc(C#N)cc3)ccc21` (centres undefined) gave a pIC50 of 8.42.
As for `Cn1c(=O)cc(-c2cccc(Cl)c2)c2cc(C(=O)c3cncn3Cc3ccc(C#N)cc3)ccc21`, the figure is 7.54; as for `Cn1c(=O)cc(-c2cccc(Cl)c2)c2cc(COCc3cncn3Cc3ccc(C#N)cc3)ccc21`, 7.05; as for `N#Cc1ccc(Cn2cncc2COCc2ccc(C#N)cc2-c2cccc(Cl)c2)nc1`, 8.77.
On to `N#Cc1ccc(Cn2cncc2COCc2ccc(C#N)cc2-c2cccc3ccccc23)cc1`, for which the pIC50 is on record as 8.89.
As to `CCOc1cccc(-c2cc(C#N)ccc2COCc2cncn2Cc2ccc(Cl)cc2)c1`, the pIC50 is given as 8.85.
Next, `N#Cc1ccc(Cn2cncc2COCc2ccc(C#N)cc2-c2ccc(OC(F)(F)F)cc2)cc1`: 9.19; `N#Cc1ccc(Cn2cncc2COCc2ccc(C#N)cc2-c2cccc3c2OCO3)cc1`: 9.09.
Turning to `N#Cc1ccc(COCc2cncn2Cc2ccc(C#N)cc2-c2cccc3ccccc23)c(-c2ccc3c(c2)OCO3)c1`, the pIC50 is listed as 8.17.
For the compound `CC(=O)c1ccc(-c2cc(C#N)ccc2COCc2cncn2Cc2ccc(C#N)cc2)cc1`, the pIC50 was 8.89.
Regarding `Cn1c(=O)cc(-c2cccc(Cl)c2)c2cc(C(NC=O)c3cncn3Cc3ccc(C#N)cc3)ccc21` (centres undefined), the pIC50 was 8.68.
For the compound `COc1cccc(-c2cc(C#N)ccc2COCc2cncn2Cc2ccc(Cl)cc2)c1`, the pIC50 came out at 8.66.
The compound `Cn1c(=O)cc(-c2cccc(Cl)c2)c2cc(C(O)c3cncn3Cc3ccc(C#N)cc3)ccc21` (centres undefined) showed a pIC50 of 7.33.
Take `N#Cc1ccc(Cn2cncc2Cn2cc(C#N)c(-c3cccc4ccccc34)c2)cc1`: the pIC50 is listed as 9.24.
Take `CC(=O)Nc1cccc(-c2cc(C#N)ccc2COCc2cncn2Cc2ccc(C#N)cc2)c1`: the pIC50 is 7.89.
As for `N#Cc1ccc(Cn2cncc2Cn2ccc3c(C#N)c(-c4cccc5ccccc45)ccc32)cc1`, the figure is 9.82.

As a reminder, the pIC50 is the negative decadic logarithm of the IC50, by convention in mol/L. High values mean a small IC50, low ones a large IC50.

Source of the values: ChEMBL document CHEMBL1154074, “3D-QSAR with the aid of pharmacophore search and docking-based alignments for farnesyltransferase inhibitors” (Eur J Med Chem, 2009).
